The values below come from patent US20120035247A1, “RNA Interference Mediated Inhibition of Signal Transducer and Activator of Transcription 6 (STAT6) Gene Expression Using Short Interfering Nucleic Acid (siNA)” (Merck Sharp & Dohme Corp., priority 2009, published 2012).

[invAb] = inverted abasic unit; m = 2'-O-methyl; r = 2'-OH (RNA); f = 2'-fluoro

In data set [1] the test system is STAT6 mRNA. Nature of the data set: STAT6 siNA screen in mouse NIH 3T3 cells, STAT6 mRNA by quantitative RT-PCR (Taqman). It is filed as cell-based. The settings on record: mouse NIH3T3 cells, 10 nM siNA, 24 hrs, normalized to GAPDH and non-targeting control, n = 2. The method, then:
NIH 3T3 (mouse; ATCC cat# CRL-1658): Cells were cultured at 37° C. in the presence of 5% CO2 and grown in Dulbecco's modified Eagle's medium (DMEM) with 4 mM L-glutamine adjusted to contain 1.5 g/L sodium bicarbonate and 4.5 g/L glucose and supplemented with fetal bovine serum at a final concentration of 10%, 100 μg/mL of streptomycin, and 100 U/mL penicillin.
(§1) Cells were plated in all wells of a tissue-culture treated, 96-well plate at a final count of 5000 cells/well in […], of the appropriate culture media. The cells were cultured for 24 hours after plating at 37° C. in the presence of 5% CO2.
(§2) After 24 hours, complexes containing siNA and RNAiMax were created as follows: A solution of RNAiMax diluted 33-fold in OPTI-MEM was prepared. In parallel, solutions of the siNAs for testing were prepared to a final concentration of 120 nM in OPTI-MEM. After incubation of RNAiMax/OPTI-MEM solution at room temperature for 5 min, an equal volume of the siNA solution and the RNAiMax solution were added together for each of the siNAs.
(§3) This solution was incubated at room temperature for 20 minutes. After incubation, 20 uL of the solution was added to each of the relevant wells. The final concentration of siNA in each well was 10 nM and the final volume of RNAiMax in each well was 0.3u1.
(§4) The time of incubation with the RNAiMax-siNA complexes was 24 hours and there was no change in media between transfection and harvesting, unless otherwise indicated.
(§5) RNA was extracted from a 96-well plate using the TaqMan® Gene Expression Cells-to-CT™ Kit (Cat#4399002) with a modified protocol. Briefly, a 60 uL (1 plate) or 110 uL (2 plates) of the Lysis Solution with DNase I was dispensed into each well of the Lysis Buffer Plate (twin.tec full skirt plate). The lysis buffer and stop plates were stored at 4° C. until the cells were washed.
(§6) The plate was spun at 1100 rpm for 5 minutes. The culture medium was aspirated and discarded from the wells of the culture plate. The lysis was performed automatically using a BioMek FX instrument and method. After the Biomek method was completed, the lysis plate was incubated for 2 min. at room temperature. The lysis plate can be stored for 2 hours at 4° C., or at −20° C. or −80° C. for two months.
(§7) Each well of the reverse transcription plate required 10 uL of 2× reverse transcriptase Buffer, luL of 20× reverse transcription enzyme and 2 uL of nuclease-free water. The reverse transcription master mix was prepared by mixing 2× reverse transcription buffer, 20× reverse transcription enzyme mix, and nuclease-free water. 13 uL of the reverse transcription master mix was dispensed into each well of the reverse transcription plate (semi-skirted). A separate reverse transcription plate was prepared for each cell plate. The plate was loaded onto a Biomek NX or Biomek FX Dual-96 and the Biomek method was run. The program is programmed to automatically added 7 uL of lysate from the cell lysis procedure described above into each well of the reverse transcription plate. The plate is sealed and spun on a centrifuge (1000 rpm for 30 seconds) to settle the contents to the bottom of the reverse transcription plate. The plate is placed in a thermocycler at 37° C. for 60 min, 95° C. for 5 min, and 4° C. until the plate is removed from the thermocycler. Upon removal, if not used immediately, the plate was frozen at −20° C.
(§8) A series of probes and primers were used to detect the various mRNA transcripts of the genes of 13-Actin (human cell line only), and of STATE and GAPDH in mouse and human cell lines. All Taqman probes and primers for the experiments here-in described were supplied as pre-validated sets by Applied Biosystems, Inc. (see Table 2).
The assays were performed on an ABI 7900 instrument, according to the manufacturer's instructions. A TaqMan Gene Expression Master Mix (provided in the Cells-to-CTT™, Applied Biosystems, Cat #4399002) was used. […]

Data set [2] deals with STAT6 mRNA. The data set is described as follows: STAT6 siNA screen and dose response in human A549 cells, STAT6 mRNA by quantitative RT-PCR (Taqman). It is filed as cell-based. To be noted: human A549 cells, 10 nM siNA, 24 hrs, normalized to GAPDH and non-targeting control, mean ± S.D., n = 3. The method, then: A549 (human; ATCC cat# CCL-185): Cells were cultured at 37° C. in the presence of 5% CO2 and grown in Ham's F12K medium with 2 mM L-glutamine adjusted to contain 1.5 g/L sodium bicarbonate and supplemented with fetal bovine serum at a final concentration of 10%, 100 μg/mL of streptomycin, and 100 U/mL penicillin.
as §1, §2, §3, §4, §5, §6, §7, §8
The assays were performed on an ABI 7900 instrument, according to the manufacturer's instructions. A TaqMan Gene Expression Master Mix (provided in the Cells-to-CTT™, Applied Biosystems, Cat #4399002) was used. The PCR reactions were carried out at 50° C. for 2 min, 95° C. for 20 min followed by 40 cycles at 95° C. for 15 secs and 60° C. for 1 min. […]

“30001-DC: STAT6 siNA duplex; sense SEQ ID NO: 66, antisense SEQ ID NO: 67; target GAAAGCCUGGUGGACAUUU, site 956 (sense GAAAGCCUGGUGGACAUUUTT; antisense AAAUGUCCACCAGGCUUUCUU; sense: DNA at AGT, 2'-fluoro at CU, [invAb] at 5' end, 3' end, backbone not given here; antisense: sugars from the 5' end rrrfmfffmffmmmfffffmm, backbone not given here) [STAT6 siNA duplex; target GAAAGCCUGGUGGACAUUU, site 956]”: the “% KD STAT6” value in data set [1] is reported as −5.9 ± 6.6%; in data set [2], 48.2 ± 5%.
For “30000-DC: STAT6 siNA duplex; sense SEQ ID NO: 64, antisense SEQ ID NO: 65; target CACAUACAGAGCUCUCUGA, site 3114 (sense CACAUACAGAGCUCUCUGATT; antisense UCAGAGAGCUCUGUAUGUGUU; sense: DNA at AGT, 2'-fluoro at CU, [invAb] at 5' end, 3' end, backbone not given here; antisense: sugars from the 5' end rrrmmmmmffffmfmfmfmmm, backbone not given here) [STAT6 siNA duplex; target CACAUACAGAGCUCUCUGA, site 3114]”, in that order: −21.9 ± 5.7% and 40.5 ± 12.5%.
For “30027-DC: STAT6 siNA duplex; sense SEQ ID NO: 118, antisense SEQ ID NO: 119; target AAGACCCGGGCAUCGCUGA, site 1025 (sense AAGACCCGGGCAUCGCUGATT; antisense UCAGCGAUGCCCGGGUCUUUU; sense: DNA at AGT, 2'-fluoro at CU, [invAb] at 5' end, 3' end, backbone not given here; antisense: sugars from the 5' end rrrmfmmfmfffmmmffffmm, backbone not given here) [STAT6 siNA duplex; target …UCGCUGA, site 1025]”, in that order: −3.3 ± 3.1% and −0.8 ± 12.4%.
The like results for “29998-DC: STAT6 siNA duplex; sense SEQ ID NO: 60, antisense SEQ ID NO: 61; target CUUCUUAUGACCUUGGAAU, site 2274 (sense CUUCUUAUGACCUUGGAAUTT; antisense AUUCCAAGGUCAUAAGAAGUU; sense: DNA at AGT, 2'-fluoro at CU, [invAb] at 5' end, 3' end, backbone not given here; antisense: sugars from the 5' end rrrffmmmmffmfmmmmmmmm, backbone not given here) [STAT6 siNA duplex; target CUUCUUAUGACCUUGGAAU, site 2274]” were, in that order, −3.8 ± 9.2% and 32.5 ± 3.5%.
With “30015-DC: STAT6 siNA duplex; sense SEQ ID NO: 94, antisense SEQ ID NO: 95; target CUCAGAUGUGACUAUGGUA, site 2544 (sense CUCAGAUGUGACUAUGGUATT; antisense UACCAUAGUCACAUCUGAGUU; sense: DNA at AGT, 2'-fluoro at CU, [invAb] at 5' end, 3' end, backbone not given here; antisense: sugars from the 5' end rrrfmfmmffmfmfffmmmmm, backbone not given here) [STAT6 siNA duplex; target CUCAGAUGUGACUAUGGUA, site 2544]”, the “% KD STAT6” value amounted to 81.6 ± 3.7% in data set [1] and 65.5 ± 7.6% in data set [2].
For “30018-DC: STAT6 siNA duplex; sense SEQ ID NO: 100, antisense SEQ ID NO: 101; target CAGAAGAUCUUCAACGACA, site 1720 (sense CAGAAGAUCUUCAACGACATT; antisense UGUCGUUGAAGAUCUUCUGUU; sense: DNA at AGT, 2'-fluoro at CU, [invAb] at 5' end, 3' end, backbone not given here; antisense: sugars from the 5' end rrrfmffmmmmmffffffmmm, backbone not given here) [STAT6 siNA duplex; target CAGAAGAUCUUCAACGACA, site 1720]”, in that order: 64.8 ± 0.7% and 66.8 ± 3.2%.
The like results for “30021-DC: STAT6 siNA duplex; sense SEQ ID NO: 106, antisense SEQ ID NO: 107; target GUCAAUGGUCCUGGUCCAA, site 793 (sense GUCAAUGGUCCUGGUCCAATT; antisense UUGGACCAGGACCAUUGACUU; sense: DNA at AGT, 2'-fluoro at CU, [invAb] at 5' end, 3' end, backbone not given here; antisense: sugars from the 5' end rrrmmffmmmmffmffmmfmm, backbone not given here) [STAT6 siNA duplex; target GUCAAUGGUCCUGGUCCAA, site 793]” were, in that order, −7 ± 7.2% and 17.2 ± 7.5%.
For “30009-DC: STAT6 siNA duplex; sense SEQ ID NO: 82, antisense SEQ ID NO: 83; target GCUUUGCUCAGAUGUGACU, site 2538 (sense GCUUUGCUCAGAUGUGACUTT; antisense AGUCACAUCUGAGCAAAGCUU; sense: DNA at AGT, 2'-fluoro at CU, [invAb] at 5' end, 3' end, backbone not given here; antisense: sugars from the 5' end rrrfmfmfffmmmfmmmmfmm, backbone not given here) [STAT6 siNA duplex; target GCUUUGCUCAGAUGUGACU, site 2538]”, the entries for the “% KD STAT6” value in data set [1] and in data set [2] were 72.7 ± 5.4% and 63.5 ± 4.6%, respectively.
For “30019-DC: STAT6 siNA duplex; sense SEQ ID NO: 102, antisense SEQ ID NO: 103; target GAAACAGCAUCUUGCCGCA, site 506 (sense GAAACAGCAUCUUGCCGCATT; antisense UGCGGCAAGAUGCUGUUUCUU; sense: DNA at AGT, 2'-fluoro at CU, [invAb] at 5' end, 3' end, backbone not given here; antisense: sugars from the 5' end rrrmmfmmmmfmffmffffmm, backbone not given here) [STAT6 siNA duplex; target …UCUUGCCGCA, site 506]”, in that order: 59.6 ± 7.3% and −9.5 ± 20.6%.
